In patent US20020119917A1, “ANTI-INFLAMMATORY PEPTIDES DERIVED FROM C-REACTIVE PROTEIN” (priority 1996, published 2002):
Starred links: 1 amine or outer side, 2 acyl side, 3 side chain; linkers in the order of their positions; H or OH if unused. Non-standard residues stand in square brackets, D forms with d. Residues, ends and D or L forms follow the SMILES beside them. No end group written: not given here. *: point of attachment. X1 = CC(C)C[C@H](NC(=O)[C@@H](N)CS*)C(=O)N[C@@H](Cc1c[nH]cn1)C(=O)N[C@@H](Cc1ccccc1)C(=O)O; NH(1-Adamantyl) = C1C2CC3CC1CC(N*)(C2)C3; MeOSuc = COC(=O)CCC(=O)*; Octanoyl = CCCCCCCC(=O)*; Cbz = O=C(OCc1ccccc1)*; CO = O=C([*:1])[*:2]; Ahx = NCCCCCC(=O)O; Sar = CNCC(=O)O

What follows are molecules tested against T1, human leukocyte elastase (hLE) (Homo sapiens, UniProt P08246) (assay: In-vitro inhibition of hLE (cleavage of MeOSuc-AAPV-NA)). Details: not given.
T1 construct: Neutrophils (1.4 billion) were isolated from whole blood obtained from a single healthy laboratory donor; from tissue; host or cells: neutrophils from whole blood of a single healthy donor
T1 sequence (P08246 30-247 limits assumed): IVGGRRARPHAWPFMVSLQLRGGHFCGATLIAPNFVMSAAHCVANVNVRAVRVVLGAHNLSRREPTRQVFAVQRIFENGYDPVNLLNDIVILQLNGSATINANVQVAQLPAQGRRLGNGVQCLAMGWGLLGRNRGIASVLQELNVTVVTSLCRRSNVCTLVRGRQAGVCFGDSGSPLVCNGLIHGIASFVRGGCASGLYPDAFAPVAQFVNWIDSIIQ
Assay type: biochemical
Method: (§1) The enzymatic activity was assayed with MeOSuc-AAPV-NA for hLE determination and Suc-AAPF-NA for hCG determination (both in 100 mM Hepes buffer, pH 7.4, containing 0.05% of the […] detergent Brij-35). The activities of the individual enzymatic fractions were 100% free from cross-contamination. […] The fractions containing hLE and hCG were dialyzed each against 0.1% pyridinium acetate, pH 5.3, divided into 20 aliquots, lyophilized, and stored at −20° C. until use.
Peptides were dissolved in 100 mM Hepes buffer pH 7.4 containing 0.1% Brij-35 with 10% DMSO to yield 600 μM solutions, which were used to make further dilutions with the same buffer, and 80 μL aliquots were added in duplicates to 96-well plates. The substrate, 600 or 900 μM MeOSuc-AAPV-NA in the same buffer with 5% DMSO, was added to each well in addition to the blank wells, and the plate was placed in the plate reader equilibrated to 37° C. (Dynateck MR-6000). Lyophilized aliquots of hLE were dissolved in 1600 μL of 100 mM Hepes buffer without DMSO, and 80 μL of the enzyme solution was added to the peptides and substrate to initiate the reaction. […] The final volume was 240 μL containing: 5% DMSO, 1-200 μM of peptide, 200 μM substrate, and 0.75 μg (about 25 picomol) enzyme.
For hLE, V is determined by fitting a linear equation to the first 6 time-points (10 min) of the kinetics data using the least squares method. […] From calculating the error in the slope of the equation, the relative error for Ki was deduced:
Ki={slope*(1+[S]/Km)}^−1 because Ki=[I]*{(1+[S]/Km)*(Vo/Vi−1)}^−1.
The hLE inhibitory capability of CRP-derived peptides was evaluated by inhibiting the enzymatic cleavage of MeOSuc-AAPV-NA as described in Materials and Methods (section v).

Molecule	hLE inhibitory capability (in words)	Ki [µM]
CC[C@H](C)[C@H](NC(=O)[C@H](Cc1c[nH]cn1)NC(=O)[C@@H](NC(=O)[C@@H]1CCCN1C(=O)[C@H](C)NC(=O)[C@@H](NC(=O)[C@@H](NC(=O)[C@@H](NC(=O)CCC(=O)OC)C(C)C)[C@@H](C)O)C(C)C)C(C)C)C(=O)O [Peptide 15, MeOSuc-Val89-Thr-Val-Ala-Pro-Val-His-Ile96] (MeOSuc-VTVAPVHI-OH)	–	160 ± 30
CC[C@H](C)[C@H](NC(=O)[C@H](Cc1c[nH]cn1)NC(=O)[C@@H](NC(=O)[C@@H]1CCCN1C(=O)[C@H](C)NC(=O)[C@@H](NC(=O)[C@@H](NC(=O)[C@@H](NC(=O)[C@H](Cc1ccccc1)NC(=O)CCC(=O)OC)C(C)C)[C@@H](C)O)C(C)C)C(C)C)C(=O)O [Peptide 16, MeOSuc-Phe-Val89-Thr-Val-Ala-Pro-Val-His-Ile96] (MeOSuc-FVTVAPVHI-OH)	–	100 ± 10
CC[C@H](C)[C@H](NC(=O)[C@H](Cc1c[nH]cn1)NC(=O)[C@@H](NC(=O)[C@@H]1CCCN1C(=O)[C@H](C)NC(=O)[C@@H](NC(=O)[C@@H](NC(=O)[C@@H](NC(=O)NC12CC3CC(CC(C3)C1)C2)C(C)C)[C@@H](C)O)C(C)C)C(C)C)C(=O)O [Peptide 17, Adamantyl-NH-CO-Val89-Thr-Val-Ala-Pro-Val-His-Ile96] ({NH(1-Adamantyl)-CO}-VTVAPVHI-OH)	–	130 ± 15
CCCCCCCC(=O)N[C@H](C(=O)N[C@H](C(=O)N[C@H](C(=O)N[C@@H](C)C(=O)N1CCC[C@H]1C(=O)N[C@H](C(=O)N[C@@H](Cc1c[nH]cn1)C(=O)N[C@H](C(=O)O)[C@@H](C)CC)C(C)C)C(C)C)[C@@H](C)O)C(C)C [Peptide 19, Octanoyl-Val89-Thr-Val-Ala-Pro-Val-His-Ile96] (Octanoyl-VTVAPVHI-OH)	–	280 ± 25
CC[C@H](C)[C@H](NC(=O)[C@H](Cc1c[nH]cn1)NC(=O)[C@@H](NC(=O)[C@@H]1CCCN1C(=O)[C@H](C)NC(=O)[C@@H](NC(=O)[C@@H](NC(=O)[C@@H](NC(=O)OCc1ccccc1)C(C)C)[C@@H](C)O)C(C)C)C(C)C)C(=O)O [Peptide 20, CBz-Val89-Thr-Val-Ala-Pro-Val-His-Ile96] (Cbz-VTVAPVHI-OH)	–	165 ± 35
CC[C@H](C)[C@H](NC(=O)[C@H](Cc1c[nH]cn1)NC(=O)[C@@H](NC(=O)[C@@H]1CCCN1C(=O)[C@H](C)NC(=O)[C@@H](NC(=O)[C@@H](NC(=O)[C@@H](NC(=O)CCCCCNC(C)=O)C(C)C)[C@@H](C)O)C(C)C)C(C)C)C(=O)O [Peptide 22, Acetyl-aminocaproyl-Val89-Thr-Val-Ala-Pro-Val-His-Ile96] (Ac-[Ahx]VTVAPVHI-OH)	–	210 ± 30
CC[C@H](C)[C@H](NC(=O)[C@H](Cc1c[nH]cn1)NC(=O)[C@@H](NC(=O)[C@H]1CCCN1C(=O)[C@H](C)NC(=O)[C@@H](NC(=O)[C@@H](NC(=O)[C@@H](N)C(C)C)[C@@H](C)O)C(C)C)C(C)C)C(=O)O [Peptide 27, Val89-Thr-Val-Ala-(D)Pro-Val-His-Ile96] (H-VTVA[dP]VHI-OH; N-terminus and C-terminus assumed)	–	560 ± 170
CC[C@H](C)[C@H](NC(=O)[C@@H](Cc1c[nH]cn1)NC(=O)[C@H](NC(=O)[C@H]1CCCN1C(=O)[C@H](C)NC(=O)[C@@H](NC(=O)[C@@H](NC(=O)[C@@H](N)C(C)C)[C@@H](C)O)C(C)C)C(C)C)C(=O)O [Peptide 28, Val89-Thr-Val-Ala-(D)Pro-(D)Val-(D)His-Ile96] (H-VTVA[dP][dV][dH]I-OH; N-terminus and C-terminus assumed)	–	2300 ± 300
Asp112-Gly-Lys-Pro-Arg-Val-Arg-Lys119 [reference compound]	No significant inhibition	–
Phe84-Glu-Val-Pro-Glu-Val-Thr90 [reference compound]	No significant inhibition	–
Ser18-Tyr-Val-Ser-Leu-Lys23 [reference compound]	No significant inhibition	–
VTVAPVHIP-NH2 [Peptide 12, Val89-Thr-Val-Ala-Pro-Val-His-Ile96-Pro-NH2]	–	70 ± 5
VTVAPVHIPP-NH2 [Peptide 14, Val89-Thr-Val-Ala-Pro-Val-His-Ile96-Pro-Pro-NH2]	–	85 ± 10

The next lines start with results.

hLE inhibitory capability (in words)	Molecule	Ki [µM]
almost completely lost	CC[C@H](C)[C@H](NC(=O)[C@H](Cc1c[nH]cn1)NC(=O)[C@@H](NC(=O)CN(C)C(=O)[C@H](C)NC(=O)[C@@H](NC(=O)[C@@H](NC(=O)[C@@H](N)C(C)C)[C@@H](C)O)C(C)C)C(C)C)C(=O)O [Peptide 30, Val89-Thr-Val-Ala-Sarcosine-Val-His-Ile96] (H-VTVA[Sar]VHI-OH; N-terminus and C-terminus assumed)	–
No significant inhibition	Asn160-Met-Trp-Asp-Phe-Val165 [reference compound]	–
No significant inhibition	Asp70-Ile-Gly-Tyr-Ser74 [reference compound]	–
No significant inhibition	Gln203-Leu-Trp-Pro206 [reference compound]	–
No significant inhibition	Thr76-Val-Gly-Gly-Ser80 [reference compound]	–
No significant inhibition	Thr200-Lys-Pro-Gln-Leu-Trp-Pro206 [reference compound]	–
No significant inhibition	Val153-Gly-Asp-Ile-Gly-Asn-Val159 [reference compound]	–
minute	Val-Ala-Pro-Val (VAPV; printed: Val-Ala-Pro-Val) [reference compound]	–

Same assay, conditions: substrate MeOSuc-AAPV-NA, 100 mM Hepes pH 7.4, 37° C.; read-out: hLE Ki

Ki [µM]	Molecule
1400 ± 500	CC[C@H](C)[C@H](NC(=O)[C@H](Cc1c[nH]cn1)NC(=O)[C@@H](NC(=O)CN(C)C(=O)[C@H](C)NC(=O)[C@@H](NC(=O)[C@@H](NC(=O)[C@@H](N)C(C)C)[C@@H](C)O)C(C)C)C(C)C)C(=O)O [Peptide 30, Val89-Thr-Val-Ala-Sarcosine-Val-His-Ile96] (H-VTVA[Sar]VHI-OH; N-terminus and C-terminus assumed)
350 ± 70	LEAIPMSI [Peptide 24, Leu-Glu-Ala-Ile-Pro-Met-Ser-Ile, reference compound]
1000 ± 250	VAPVHI [Peptide 26, Val91-Ala-Pro-Val-His-Ile96]
900 ± 300	VTVAPV [Peptide 25, Val89-Thr-Val-Ala-Pro-Val94]
200 ± 20	VTVAPVSI [Peptide 9, Val89-Thr-Val-Ala-Pro-Val-Ser-Ile96]

These molecules were tested against T2, human leukocyte cathepsin G (hCG) (Homo sapiens, UniProt P08311) (assay: In-vitro inhibition of hCG (conversion of Suc-AAPF-NA)). Details: not given.
T2 construct: Neutrophils (1.4 billion) were isolated from whole blood obtained from a single healthy laboratory donor; from tissue; host or cells: neutrophils from whole blood of a single healthy donor
T2 sequence (P08311 21-244 limits assumed): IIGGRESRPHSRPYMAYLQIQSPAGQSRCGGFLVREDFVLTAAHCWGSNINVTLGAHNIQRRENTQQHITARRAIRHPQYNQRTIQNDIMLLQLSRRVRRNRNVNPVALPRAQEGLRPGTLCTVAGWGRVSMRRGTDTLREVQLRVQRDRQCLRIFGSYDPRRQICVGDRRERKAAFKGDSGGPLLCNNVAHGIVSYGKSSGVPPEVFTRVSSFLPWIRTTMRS
Assay type: biochemical
Method: as §1
Similar conditions to hLE inhibition experiments ere used except the substrate: 80 μL of 1.8 mM Suc-AAPF-NA. The enzyme was issolved in 800 μL buffer, and the reaction was monitored every 6 min for 1 hour. The final volume was 240 μL containing: 5% DMSO, 1-500 μM peptide, 600 μM substrate, and 1.2 μg enzyme (about 40 picomol).
For hCG, V is determined by fitting a quadratic equation to the total kinetic data (60 min), using the least squares method and calculating V at t=0.
The inhibitory capability of several CRP-derived peptides was evaluated by inhibiting the enzymatic conversion of Suc-AAPF-NA (as described in Materials and Methods (vi) above).

hCG inhibitory capability (in words)	Molecule	Ki [µM]
completely inactive	CC[C@H](C)[C@H](NC(=O)[C@H](Cc1c[nH]cn1)NC(=O)[C@@H](NC(=O)[C@@H]1CCCN1C(=O)[C@H](C)NC(=O)[C@@H](NC(=O)[C@@H](NC(=O)[C@@H](N)C(C)C)[C@@H](C)O)C(C)C)C(C)C)C(=O)N[C@@H](CSSC[C@H](N)C(=O)N[C@@H](CC(C)C)C(=O)N[C@@H](Cc1c[nH]cn1)C(=O)N[C@@H](Cc1ccccc1)C(=O)O)C(=O)O [Peptide 4, Val89-Thr-Val-Ala-Pro-Val-His-Ile-Cys97-Cys36-His-Leu-Phe39] (H-VTVAPVHIC(X1)-OH)	–
completely inactive	CC[C@H](C)[C@H](NC(=O)[C@H](Cc1c[nH]cn1)NC(=O)[C@@H](NC(=O)[C@@H]1CCCN1C(=O)[C@H](C)NC(=O)[C@@H](NC(=O)[C@@H](NC(=O)[C@@H](NC(=O)[C@H](CCC(=O)O)NC(=O)[C@@H]1CCCN1C(=O)[C@@H](NC(=O)[C@H](CCC(=O)O)NC(=O)[C@H](Cc1ccccc1)NC(=O)[C@H](CC(C)C)NC(=O)[C@@H](NC(=O)[C@H](CCC(=O)O)NC(=O)[C@H](CO)NC(=O)CN)[C@@H](C)CC)C(C)C)C(C)C)[C@@H](C)O)C(C)C)C(C)C)C(=O)N[C@@H](CSSC[C@H](N)C(=O)N[C@@H](CC(C)C)C(=O)N[C@@H](Cc1c[nH]cn1)C(=O)N[C@@H](Cc1ccccc1)C(=O)O)C(=O)O [Peptide 5, Gly79-Ser-Glu-Ile-Leu-Phe-Glu-Val-Pro-Glu-Val-Thr-Val-Ala-Pro-Val-His-Ile-Cys97-Cys36-His-Leu-Phe39] (H-GSEILFEVPEVTVAPVHIC(X1)-OH)	–
–	CC[C@H](C)[C@H](NC(=O)[C@H](Cc1c[nH]cn1)NC(=O)[C@@H](NC(=O)[C@@H]1CCCN1C(=O)[C@H](C)NC(=O)[C@@H](NC(=O)[C@@H](NC(=O)[C@@H](NC(=O)[C@H](Cc1ccccc1)NC(=O)CCC(=O)OC)C(C)C)[C@@H](C)O)C(C)C)C(C)C)C(=O)O [Peptide 16, MeOSuc-Phe-Val89-Thr-Val-Ala-Pro-Val-His-Ile96] (MeOSuc-FVTVAPVHI-OH)	100 ± 200
